{"source": "patent US4605413A", "about": "“Stimulation of chemotaxis by chemotactic peptides” (The University of Alabama at Birmingham, priority 1983, dated 1986)", "molecules": {"B1": {"name": "C5A: activity derived from the fifth component of complement (C5a) (protein, UniProt P01031 678-751, looked up)", "C5a anaphylatoxin": "TLQKKIEEIAAKYKHSVVKKCCYDGACVNNDETCEQRAARISLGPRCIKAFTECCVVASQLRANISHKDMQLGR", "modifications": "C5a anaphylatoxin"}}, "type_in_all_cases": "cell-based", "key": {"fibroblasts": {"test_system": "fibroblasts", "test": "Fibroblast chemotaxis in multi-blind well apparatus", "settings": "for chemotactic activity of isolated hexapeptides: qualitative; for chemotactic activity in presence of antibody to elastin: polyclonal antibody to elastin present, FIG. 4; for Fibroblast Migration, Net Cells/HPF ± SEM: N = 15", "method": "(§1) The chemotactic response of fibroblasts to a hexapeptide of the invention was measured using the techniques described in Senior et al, J. Clin. Invest., 70, 614-618 (1982), which is herein incorporated by reference. Although the actual conditions used may vary slightly, the following generally describes the experimental conditions.\n(§2) Chemotaxis was determined in a multi-blind well apparatus using a polycarbonate membrane with 8-μm pores on top of a cellulose nitrate membrane having 0.45-μm pores to separate each well into upper and lower compartments. The lower compartment was filled with 240 μl of solution to be assayed (or control medium) and then covered with the membranes. In the upper compartment was placed 350 μl of cell suspension containing 1.2×10^5 cells/ml.\n(§3) After both compartments of the wells were filled, the chemotaxis apparatus was placed in a humidified incubator at 37° C. in an atmosphere of 5% CO2 -95% air for several hours. The apparatus was then disassembled, and each membrane pair was removed and stained with hematoxylin. Cell migration was determined under high dry magnification (×400) by counting the cells that had moved to the interface between the two membranes and those on the lower membrane. Several high power fields (H.P.F.) were counted for each membrane. Multiple determinations of each experiment were conducted, and the results pooled. Cell migration is expressed as the net number of cells per H.P.F.; i.e., the number of cells per H.P.F. minus the number of cells per H.P.F. that migrated in response to control medium."}, "Monocytes": {"test_system": "Monocytes", "test": "Desensitization of monocyte chemotaxis by pre-exposure to elastin peptides", "settings": "for % CONTROL: desensitized vs control; for Monocyte chemotaxis, CONTROL: no pre-exposure; for Monocyte chemotaxis, CONTROL / Monocyte chemotaxis, DESENSITIZED: mean of 15; for Monocyte chemotaxis, DESENSITIZED: pre-exposed to elastin peptides; for effect of pre-exposure to elastin-derived peptide fragments on monocyte chemotactic response: monocytes pre-exposed to elastin-derived peptide fragments, qualitative"}, "[1]": {"test_system": "young fibroblasts (not yet synthesizing elastin)", "test": "Chemotaxis of young (immature) fibroblasts before and after induced differentiation", "settings": "FIG. 2", "method": "as §1, §2\nas §3, with “The apparatus was then disassembled, and each membrane pair was removed and stained with hematoxylin.” left out, “Multiple determinations of each experiment were conducted, and the results pooled.” left out"}, "[2]": {"settings": "FIG. 1, dose response of fibroblasts"}, "[3]": {"settings": "chemoattractant at concentration for maximum chemotaxis"}}, "note": "No end group written: not given here."}
{"molecule": "H-APGVGV-OH [H--APGVGV--OH]", "values": [{"measurement": "chemotactic activity of isolated hexapeptides", "setting": "fibroblasts", "value": "chemotactic activity is also seen"}]}
{"molecule": "CSCC[C@H](NC=O)C(=O)N[C@@H](CC(C)C)C(=O)N[C@@H](Cc1ccccc1)C(=O)O", "note": "[FMLP, formylmethionylleucylphenylalanine, reference compound]", "values": [{"measurement": "% CONTROL", "setting": "Monocytes; chemoattractant 10^-8 M", "value": 77, "unit": "%"}, {"measurement": "Monocyte chemotaxis, CONTROL", "setting": "Monocytes; chemoattractant 10^-8 M", "value": "100 Cells per high power field"}, {"measurement": "Monocyte chemotaxis, DESENSITIZED", "setting": "Monocytes; chemoattractant 10^-8 M", "value": "77 Cells per high power field"}, {"measurement": "% CONTROL", "setting": "Monocytes; chemoattractant 10^-9 M", "value": 100, "unit": "%"}, {"measurement": "Monocyte chemotaxis, CONTROL", "setting": "Monocytes; chemoattractant 10^-9 M", "value": "45 Cells per high power field"}, {"measurement": "Monocyte chemotaxis, DESENSITIZED", "setting": "Monocytes; chemoattractant 10^-9 M", "value": "45 Cells per high power field"}, {"measurement": "effect of pre-exposure to elastin-derived peptide fragments on monocyte chemotactic response", "setting": "Monocytes", "value": "pre-exposure has no effect on response"}]}
{"molecule": "H-PGVGVA-OH [H--PGVGVA--OH]", "values": [{"measurement": "chemotactic activity of isolated hexapeptides", "setting": "fibroblasts", "value": "chemotactic activity is also seen"}]}
{"molecule": "H-GVAPGV-OH [H--GVAPGV--OH]", "values": [{"measurement": "chemotactic activity of isolated hexapeptides", "setting": "fibroblasts", "value": "chemotactic activity is also seen"}]}
{"molecule": "platelet-derived growth factor [PDGF]", "values": [{"measurement": "Fibroblast Migration, Positive Control", "setting": "fibroblasts; PDGF, 10^-9 M", "value": 31, "unit": "Cells/HPF"}, {"measurement": "chemotactic activity in presence of antibody to elastin", "setting": "fibroblasts", "value": "has no effect on the chemotactic activity"}, {"measurement": "migration of young fibroblasts", "setting": "[1]", "value": "have the capacity to migrate"}]}
{"molecule": "H-GVGVAP-OH [H--GVGVAP--OH]", "values": [{"measurement": "chemotactic activity of isolated hexapeptides", "setting": "fibroblasts", "value": "chemotactic activity is also seen"}]}
{"molecule": "H-VAPGVG-OH [H--VAPGVG--OH]", "values": [{"measurement": "chemotactic activity of isolated hexapeptides", "setting": "fibroblasts", "value": "chemotactic activity is also seen"}]}
{"molecule": "VGVAPG [VGVAPG, VAL--GLY--VAL--ALA--PRO--GLY]", "values": [{"measurement": "% CONTROL", "setting": "Monocytes; chemoattractant 10^-8 M", "value": 0, "unit": "%"}, {"measurement": "Monocyte chemotaxis, CONTROL", "setting": "Monocytes; chemoattractant 10^-8 M", "value": "70 Cells per high power field"}, {"measurement": "Monocyte chemotaxis, DESENSITIZED", "setting": "Monocytes; chemoattractant 10^-8 M", "value": "-4 Cells per high power field"}, {"measurement": "% CONTROL", "setting": "Monocytes; chemoattractant 10^-9 M", "value": 0, "unit": "%"}, {"measurement": "Monocyte chemotaxis, CONTROL", "setting": "Monocytes; chemoattractant 10^-9 M", "value": "42 Cells per high power field"}, {"measurement": "Monocyte chemotaxis, DESENSITIZED", "setting": "Monocytes; chemoattractant 10^-9 M", "value": "-2 Cells per high power field"}, {"measurement": "effect of pre-exposure to elastin-derived peptide fragments on monocyte chemotactic response", "setting": "Monocytes", "value": "no longer show chemotaxis"}, {"measurement": "concentration of greatest chemotactic activity", "setting": "fibroblasts; [2]", "value": "10^-9 M"}, {"measurement": "concentrations at which chemotactic response was seen", "setting": "fibroblasts; [2]", "value": "higher than 10^-11 M"}, {"measurement": "nature of fibroblast response (chemotaxis vs random movement)", "setting": "fibroblasts; Table 1 gradient analysis", "value": "chemotaxis and not simply stimulation of random movement"}, {"measurement": "Fibroblast Migration, Net Cells/HPF ± SEM", "setting": "fibroblasts; VGVAPG lower compartment 0, upper compartment 10^-8 M", "value": "-2 ± 0.5", "unit": "Net Cells/HPF"}, {"measurement": "Fibroblast Migration, Net Cells/HPF ± SEM", "setting": "fibroblasts; VGVAPG lower compartment 0, upper compartment 10^-9 M", "value": "0 ± 0.7", "unit": "Net Cells/HPF"}, {"measurement": "Fibroblast Migration, Net Cells/HPF ± SEM", "setting": "fibroblasts; VGVAPG lower compartment 0, upper compartment 10^-10 M", "value": "1 ± 0.6", "unit": "Net Cells/HPF"}, {"measurement": "Fibroblast Migration, Net Cells/HPF ± SEM", "setting": "fibroblasts; VGVAPG lower compartment 10^-8 M, upper compartment 0", "value": "27 ± 1.7", "unit": "Net Cells/HPF"}, {"measurement": "Fibroblast Migration, Net Cells/HPF ± SEM", "setting": "fibroblasts; VGVAPG lower compartment 10^-8 M, upper compartment 10^-8 M", "value": "1 ± 0.7", "unit": "Net Cells/HPF"}, {"measurement": "Fibroblast Migration, Net Cells/HPF ± SEM", "setting": "fibroblasts; VGVAPG lower compartment 10^-8 M, upper compartment 10^-9 M", "value": "3 ± 0.6", "unit": "Net Cells/HPF"}, {"measurement": "Fibroblast Migration, Net Cells/HPF ± SEM", "setting": "fibroblasts; VGVAPG lower compartment 10^-8 M, upper compartment 10^-10 M", "value": "13 ± 1.8", "unit": "Net Cells/HPF"}, {"measurement": "Fibroblast Migration, Net Cells/HPF ± SEM", "setting": "fibroblasts; VGVAPG lower compartment 10^-9 M, upper compartment 0", "value": "15 ± 1.7", "unit": "Net Cells/HPF"}, {"measurement": "Fibroblast Migration, Net Cells/HPF ± SEM", "setting": "fibroblasts; VGVAPG lower compartment 10^-9 M, upper compartment 10^-8 M", "value": "0 ± 0.6", "unit": "Net Cells/HPF"}, {"measurement": "Fibroblast Migration, Net Cells/HPF ± SEM", "setting": "fibroblasts; VGVAPG lower compartment 10^-9 M, upper compartment 10^-9 M", "value": "0 ± 0.4", "unit": "Net Cells/HPF"}, {"measurement": "Fibroblast Migration, Net Cells/HPF ± SEM", "setting": "fibroblasts; VGVAPG lower compartment 10^-9 M, upper compartment 10^-10 M", "value": "7 ± 1.3", "unit": "Net Cells/HPF"}, {"measurement": "Fibroblast Migration, Net Cells/HPF ± SEM", "setting": "fibroblasts; VGVAPG lower compartment 10^-10 M, upper compartment 0", "value": "4 ± 1.0", "unit": "Net Cells/HPF"}, {"measurement": "Fibroblast Migration, Net Cells/HPF ± SEM", "setting": "fibroblasts; VGVAPG lower compartment 10^-10 M, upper compartment 10^-8 M", "value": "1 ± 1.0", "unit": "Net Cells/HPF"}, {"measurement": "Fibroblast Migration, Net Cells/HPF ± SEM", "setting": "fibroblasts; VGVAPG lower compartment 10^-10 M, upper compartment 10^-9 M", "value": "-3 ± 0.4", "unit": "Net Cells/HPF"}, {"measurement": "Fibroblast Migration, Net Cells/HPF ± SEM", "setting": "fibroblasts; VGVAPG lower compartment 10^-10 M, upper compartment 10^-10 M", "value": "2 ± 0.7", "unit": "Net Cells/HPF"}, {"measurement": "chemotactic activity of isolated hexapeptides", "setting": "fibroblasts", "value": "most chemotactic of the isolated hexapeptides"}, {"measurement": "chemotactic activity in presence of antibody to elastin", "setting": "fibroblasts", "value": "blocks the chemotactic activity"}, {"measurement": "migration of young fibroblasts", "setting": "[1]", "value": "do not migrate"}]}
{"molecule": "B1", "values": [{"measurement": "% CONTROL", "setting": "Monocytes; [3]", "value": 100, "unit": "%"}, {"measurement": "Monocyte chemotaxis, CONTROL", "setting": "Monocytes; [3]", "value": "102 Cells per high power field"}, {"measurement": "Monocyte chemotaxis, DESENSITIZED", "setting": "Monocytes; [3]", "value": "102 Cells per high power field"}, {"measurement": "effect of pre-exposure to elastin-derived peptide fragments on monocyte chemotactic response", "setting": "Monocytes", "value": "pre-exposure has no effect on response"}]}
